The NIST ThermoML archive (doi:10.1016/j.jct.2008.02.019)

Key:
[1] = excess molar enthalpy (molar enthalpy of mixing); xn = mol fraction of the nth substance listed; details: 101 kPa, Liquid, Flow calorimetry
[2] = xn = mol fraction of the nth substance listed; details: 101 kPa, Liquid

CCCC[n+]1ccc(C)cc1.F[B-](F)(F)F [1-butyl-4-methylpyridinium tetrafluoroborate] + O
Details	excess molar enthalpy [kcal/mol]	mass density [kg/m3]
[1], 298.15 K, x1 = 0.0072	0.0249	–
[1], 298.15 K, x1 = 0.0145	0.0473	–
[1], 298.15 K, x1 = 0.0215	0.0679	–
[1], 298.15 K, x1 = 0.0303	0.0908	–
[1], 298.15 K, x1 = 0.0406	0.117	–
[1], 298.15 K, x1 = 0.0526	0.147	–
[1], 298.15 K, x1 = 0.0659	0.177	–
[1], 298.15 K, x1 = 0.0805	0.209	–
[1], 298.15 K, x1 = 0.0963	0.243	–
[1], 298.15 K, x1 = 0.1144	0.278	–
[1], 298.15 K, x1 = 0.1563	0.349	–
[1], 298.15 K, x1 = 0.1863	0.38	–
[1], 298.15 K, x1 = 0.2196	0.407	–
[1], 298.15 K, x1 = 0.2577	0.424	–
[1], 298.15 K, x1 = 0.2972	0.433	–
[1], 298.15 K, x1 = 0.3449	0.433	–
[1], 298.15 K, x1 = 0.3974	0.42	–
[1], 298.15 K, x1 = 0.4857	0.379	–
[1], 298.15 K, x1 = 0.5954	0.32	–
[1], 298.15 K, x1 = 0.7282	0.23	–
[1], 298.15 K, x1 = 0.8706	0.116	–
[1], 318.15 K, x1 = 0.0097	0.0449	–
[1], 318.16 K, x1 = 0.0226	0.0937	–
[1], 318.17 K, x1 = 0.0382	0.145	–
[1], 318.18 K, x1 = 0.0565	0.197	–
[1], 318.19 K, x1 = 0.0755	0.249	–
[1], 318.2 K, x1 = 0.0949	0.293	–
[1], 318.21 K, x1 = 0.1132	0.336	–
[1], 318.22 K, x1 = 0.1187	0.36	–
[1], 318.23 K, x1 = 0.1414	0.402	–
[1], 318.24 K, x1 = 0.1695	0.44	–
[1], 318.25 K, x1 = 0.2008	0.471	–
[1], 318.26 K, x1 = 0.2346	0.499	–
[1], 318.27 K, x1 = 0.2746	0.524	–
[1], 318.28 K, x1 = 0.3253	0.537	–
[1], 318.29 K, x1 = 0.383	0.533	–
[1], 318.3 K, x1 = 0.441	0.517	–
[1], 318.31 K, x1 = 0.5071	0.484	–
[1], 318.32 K, x1 = 0.5961	0.42	–
[1], 318.33 K, x1 = 0.6778	0.34	–
[1], 318.34 K, x1 = 0.7866	0.236	–
[1], 318.35 K, x1 = 0.9058	0.102	–
[2], 298.15 K, x1 = 0.0502	–	1060.5
[2], 298.15 K, x1 = 0.1042	–	1094.8
[2], 298.15 K, x1 = 0.1512	–	1112.7
[2], 298.15 K, x1 = 0.2006	–	1126.1
[2], 298.15 K, x1 = 0.2543	–	1136.1
[2], 298.15 K, x1 = 0.2948	–	1142.4
[2], 298.15 K, x1 = 0.4	–	1154.1
[2], 298.15 K, x1 = 0.4913	–	1161.5
[2], 298.15 K, x1 = 0.6014	–	1168.3
[2], 298.15 K, x1 = 0.7228	–	1173.9
[2], 298.15 K, x1 = 0.7493	–	1175.1
[2], 298.15 K, x1 = 0.783	–	1176.4
[2], 298.15 K, x1 = 0.8449	–	1178.7
[2], 298.15 K, x1 = 0.8731	–	1179.8
[2], 298.15 K, x1 = 0.9504	–	1182.1
[2], 318.15 K, x1 = 0.0327	–	1033
[2], 318.15 K, x1 = 0.0994	–	1080
[2], 318.15 K, x1 = 0.1505	–	1098.7
[2], 318.15 K, x1 = 0.1989	–	1111.3
[2], 318.15 K, x1 = 0.236	–	1118.6
[2], 318.15 K, x1 = 0.2921	–	1127.6
[2], 318.15 K, x1 = 0.3237	–	1131.9
[2], 318.15 K, x1 = 0.4169	–	1141.3
[2], 318.15 K, x1 = 0.4841	–	1146.6
[2], 318.15 K, x1 = 0.6083	–	1154.2
[2], 318.15 K, x1 = 0.6715	–	1157.5
[2], 318.15 K, x1 = 0.7125	–	1159.2
[2], 318.15 K, x1 = 0.7299	–	1160
[2], 318.15 K, x1 = 0.8124	–	1163
[2], 318.15 K, x1 = 0.8565	–	1164.7
[2], 318.15 K, x1 = 0.8888	–	1165.8
